Experimental findings from patent publication US9499492B2, “4-(ortho)-fluorophenyl-5-fluoropyrimidin-2-yl amines containing a sulfoximine group” (BAYER PHARMA AKTIENGESELLSCHAFT, priority 2012, dated 2016) are described below.

Structures can show the parent of a compound that is named as a salt. Where two headings read alike, the source gives them in different places.

For test [1], the target named is T1, CDK9/CycT1 (Homo sapiens (Human), UniProt P50750). The test can be described thus: CDK9/CycT1 kinase assay (Method 1a). In kind it is biochemical. Conditions: for IC50: 10 μM ATP; for Selectivity CDK9/CDK2: derived from Methods 1a. and 2. From the text: 1a. CDK9/CycT1 Kinase Assay:
CDK9/CycT1-inhibitory activity of compounds of the present invention was quantified employing the CDK9/CycT1 TR-FRET assay as described in the following paragraphs:
Recombinant full-length His-tagged human CDK9 and CycT1, expressed in insect cells and purified by Ni-NTA affinity chromatography, were purchased from Invitrogen (Cat. No PV4131). As substrate for the kinase reaction biotinylated peptide biotin-Ttds-[…] (C-terminus in amid form) was used which can be purchased e.g. form the company JERINI Peptide Technologies (Berlin, Germany).
(§1) For the assay 50 nl of a 100 fold concentrated solution of the test compound in DMSO was pipetted into a black low volume 384 well microtiter plate (Greiner Bio-One, Frickenhausen, Germany), 2 μl of a solution of CDK9/CycT1 in aqueous assay buffer [50 mM Tris/HCl pH 8.0, 10 mM MgCl2, 1.0 mM dithiothreitol, 0.1 mM sodium ortho-vanadate, 0.01% (v/v) Nonidet-P40 (Sigma)] were added and the mixture was incubated for 15 min at 22° C. to allow pre-binding of the test compounds to the enzyme before the start of the kinase reaction. […] The concentration of CDK9/CycT1 was adjusted depending of the activity of the enzyme lot and was chosen appropriate to have the assay in the linear range, typical concentrations were in the range of 1 μg/ml.
(§2) The resulting mixture was incubated 1 h at 22° C. to allow the formation of complex between the phosphorylated biotinylated peptide and the detection reagents. Subsequently the amount of phosphorylated substrate was evaluated by measurement of the resonance energy transfer from the Eu-chelate to the streptavidine-XL. Therefore, the fluorescence emissions at 620 nm and 665 nm after excitation at 350 nm was measured in a HTRF reader, e.g. a Rubystar (BMG Labtechnologies, Offenburg, Germany) or a Viewlux (Perkin-Elmer). The ratio of the emissions at 665 nm and at 622 nm was taken as the measure for the amount of phosphorylated substrate.

Test [2] addresses T1, CDK9/CycT1. The test is described as follows: CDK9/CycT1 high ATP kinase assay (Method 1b). The test is classed as biochemical. As to conditions: 2 mM ATP. The protocol:
1b. CDK9/CycT1 High ATP Kinase Assay
CDK9/CycT1-inhibitory activity of compounds of the present invention at a high ATP concentration after preincubation of enzyme and test compounds was quantified employing the CDK9/CycT1 TR-FRET assay as described in the following paragraphs.
Recombinant full-length His-tagged human CDK9 and CycT1, expressed in insect cells and purified by Ni-NTA affinity chromatography, were purchase from Invitrogen (Cat. No PV4131). As substrate for the kinase reaction biotinylated peptide biotin-Ttds-[…] (C-terminus in amid form) was used which can be purchased e.g. form the company JERINI peptide technologies (Berlin, Germany).
as §1, with “of 0.5” for “of 1”
as §2

Test [3] concerns the target CDK2/CycE (Homo sapiens (Human), UniProt P24941). The test can be described thus: CDK2/CycE kinase assay (Method 2). In kind it is biochemical. Conditions: 10 μM ATP.
Description: 2. CDK2/CycE Kinase Assay:
CDK2/CycE-inhibitory activity of compounds of the present invention was quantified employing the CDK2/CycE TR-FRET assay as described in the following paragraphs:
Recombinant fusion proteins of GST and human CDK2 and of GST and human CycE, expressed in insect cells (Sf9) and purified by Glutathion-Sepharose affinity chromatography, were purchased from ProQinase GmbH (Freiburg, Germany). As substrate for the kinase reaction biotinylated peptide biotin-Ttds-[…] (C-terminus in amid form) was used which can be purchased e.g. form the company JERINI Peptide Technologies (Berlin, Germany).
as §1, with “CDK2/CycE” for “CDK9/CycT1”, “130 ng/ml.” for “1 μg/ml.”
as §2, with “TR-FRET” for “HTRF”

The subject of test [4] is HeLa, human cervical tumour cells. The test can be described thus: Proliferation assay, HeLa (Method 3). In kind it is cell-based. As to conditions: 4 days, crystal violet, read-out: Inhibition of HeLa cell proliferation IC50. As to the method:
(§3) After 24 hours, the cells of one plate (zero-point plate) were stained with crystal violet (see below), while the medium of the other plates was replaced by fresh culture medium (200 μl), to which the test substances were added in various concentrations (0 μM, as well as in the range of 0.001-10 μM; the final concentration of the solvent dimethyl sulfoxide was 0.5%). The cells were incubated for 4 days in the presence of test substances. Cell proliferation was determined by staining the cells with crystal violet: the cells were fixed by adding 20 μl/measuring point of an 11% glutaric aldehyde solution for 15 minutes at room temperature. After three washing cycles of the fixed cells with water, the plates were dried at room temperature. The cells were stained by adding 100 μl/measuring point of a 0.1% crystal violet solution (pH 3.0). After three washing cycles of the stained cells with water, the plates were dried at room temperature. The dye was dissolved by adding 100 μl/measuring point of a 10% acetic acid solution. The extinction was determined by photometry at a wavelength of 595 nm. The change of cell number, in percent, was calculated by normalization of the measured values to the extinction values of the zero-point plate (=0%) and the extinction of the untreated (0 μm) cells (=100%).

For test [5], the system named is A2780, human ovarian carcinoma cells. The test can be described thus: Proliferation assay, A2780 (Method 3). As to conditions: Homo sapiens, A2780, 96 h, A2780, 4 days, crystal violet; read-out: Inhibition of A2780 cell proliferation IC50. The test is classed as cell-based. The protocol: as §3

T1 sequence (P50750 whole entry): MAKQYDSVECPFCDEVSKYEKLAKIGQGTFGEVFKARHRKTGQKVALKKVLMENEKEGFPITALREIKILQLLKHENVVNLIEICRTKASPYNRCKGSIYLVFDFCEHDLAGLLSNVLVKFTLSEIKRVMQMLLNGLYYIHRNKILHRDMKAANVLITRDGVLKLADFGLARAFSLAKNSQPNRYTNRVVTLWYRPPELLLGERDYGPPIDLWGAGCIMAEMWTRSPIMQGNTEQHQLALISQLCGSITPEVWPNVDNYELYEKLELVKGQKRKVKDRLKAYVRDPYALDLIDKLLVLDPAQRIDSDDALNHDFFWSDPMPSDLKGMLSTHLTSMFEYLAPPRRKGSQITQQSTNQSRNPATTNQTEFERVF
T1 sequence (O60563 whole entry partner): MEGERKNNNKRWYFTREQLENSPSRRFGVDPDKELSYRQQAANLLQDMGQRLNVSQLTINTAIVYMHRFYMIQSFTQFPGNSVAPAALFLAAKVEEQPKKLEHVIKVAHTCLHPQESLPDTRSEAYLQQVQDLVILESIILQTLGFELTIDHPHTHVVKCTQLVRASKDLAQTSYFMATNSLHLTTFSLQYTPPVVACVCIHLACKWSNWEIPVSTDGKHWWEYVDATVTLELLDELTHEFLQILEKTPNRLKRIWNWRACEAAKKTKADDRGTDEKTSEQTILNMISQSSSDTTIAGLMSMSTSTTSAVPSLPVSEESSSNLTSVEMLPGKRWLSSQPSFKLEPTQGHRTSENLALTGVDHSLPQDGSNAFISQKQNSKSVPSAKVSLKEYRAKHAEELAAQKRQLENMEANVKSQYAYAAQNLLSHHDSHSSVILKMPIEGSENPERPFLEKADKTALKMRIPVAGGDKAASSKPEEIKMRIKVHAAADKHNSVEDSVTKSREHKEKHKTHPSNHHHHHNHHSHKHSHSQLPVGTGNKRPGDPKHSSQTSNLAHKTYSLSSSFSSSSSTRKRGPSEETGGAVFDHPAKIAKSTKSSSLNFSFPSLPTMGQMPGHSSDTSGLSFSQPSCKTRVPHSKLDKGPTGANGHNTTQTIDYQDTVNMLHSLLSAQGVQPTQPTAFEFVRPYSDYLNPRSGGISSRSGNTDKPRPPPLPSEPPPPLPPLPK

As for `CS(=N)(=O)Cc1cccc(Nc2ncc(F)c(-c3ccc(F)cc3F)n2)c1` (racemic) [Example 9, (rac)-4-(2,4-Difluorophenyl)-5-fluoro-N-{3-[(S-methylsulfonimidoyl)methyl]phenyl}pyrimidin-2-amine], the IC50 in test [1] was determined as 0.042 µM; in test [2], 2.71 µM; in test [3] it was 1.1 µM. The “Selectivity CDK9/CDK2” value in test [1] worked out at 25.
With `N=S(=O)(CCN)Cc1cc(Nc2ncc(F)c(-c3ccc(F)cc3F)n2)cc(C(F)(F)F)c1` (single isomer, unassigned) [Example 26, N-[3-{[S-(2-Aminoethyl)sulfonimidoyl]methyl}-5-(trifluoromethyl)phenyl]-4-(2,4-difluorophenyl)-5-fluoropyrimidin-2-amine], the results for the IC50 in test [2] and in test [3] were 0.278 µM and 1.3 µM, respectively.
Take `Cc1cc(CS(C)(=N)=O)cc(Nc2ncc(F)c(-c3ccc(F)cc3F)n2)c1` (single isomer, unassigned) [Example 38, 4-(2,4-Difluorophenyl)-5-fluoro-N-{3-methyl-5-[(S-methylsulfonimidoyl)methyl]-phenyl}pyrimidin-2-amine]: the IC50 was found to be 0.019 µM in test [1], 6.49 µM in test [2], 0.72 µM in test [3] and 0.649 µM in test [4]. Moreover, the “Selectivity CDK9/CDK2” value in test [1] worked out at 38.
In the case of `N=S(=O)(CCN)Cc1cc(Nc2ncc(F)c(-c3ccc(F)cc3F)n2)cc(C(F)(F)F)c1` (single isomer, unassigned) [Example 27, N-[3-{[S-(2-Aminoethyl)sulfonimidoyl]methyl}-5-(trifluoromethyl)phenyl]-4-(2,4-difluorophenyl)-5-fluoropyrimidin-2-amine], the results for the IC50 in test [2] and in test [3] were 0.276 µM and 1.1 µM, respectively.
For the compound `Cc1cc(CS(C)(=N)=O)cc(Nc2ncc(F)c(-c3ccc(F)cc3F)n2)c1` (racemic) [Example 17, (rac)-4-(2,4-Difluorophenyl)-5-fluoro-N-{3-methyl-5-[(S-methylsulfonimidoyl)methyl]phenyl}pyrimidin-2-amine], the IC50 in test [5] was 0.18 µM; in test [1], 0.026 µM; in test [2] it was 0.47 µM; in test [3], 0.48 µM; in test [4] (Homo sapiens, 96 h), 1.36 µM. Moreover, in test [1], the “Selectivity CDK9/CDK2” value is listed as 19.
Regarding `Cc1cc(CS(C)(=N)=O)cc(Nc2ncc(F)c(-c3ccc(F)cc3F)n2)c1` (single isomer, unassigned) [Example 37, 4-(2,4-Difluorophenyl)-5-fluoro-N-{3-methyl-5-[(S-methylsulfonimidoyl)methyl]-phenyl}pyrimidin-2-amine], the IC50 came to 0.036 µM in test [1]; 6.31 µM in test [2]; 0.83 µM in test [3]; 1.08 µM in test [4] (Homo sapiens, 96 h). The “Selectivity CDK9/CDK2” value in test [1] was found to be 23.
Taken in the same sequence, the figures for `N=S(=O)(CCN)Cc1cc(Nc2ncc(F)c(-c3ccc(F)cc3F)n2)cc(C(F)(F)F)c1` (racemic) [Example 25, (rac)-N-[3-{[S-(2-Aminoethyl)sulfonimidoyl]methyl}-5-(trifluoromethyl)phenyl]-4-(2,4-difluorophenyl)-5-fluoropyrimidin-2-amine trifluoroacetate] were 0.085 µM, 0.417 µM, 3.2 µM, 2.21 µM and 38.
Taken in the same sequence, the figures for `COCCS(=O)(Cc1cc(Nc2ncc(F)c(-c3ccc(F)cc3F)n2)cc(C(F)(F)F)c1)=NC#N` (racemic) [Example 22, (rac)-{[3-{[4-(2,4-Difluorophenyl)-5-fluoropyrimidin-2-yl]amino}-5-(trifluoromethyl)benzyl](2-methoxyethyl)oxido-λ^6-sulfanylidene}cyanamide] were 0.007 µM, 0.019 µM, 1.2 µM, 0.9 µM and 183.
